According to US8936809B2, “Method for treating prostate diseases based on local delivery of active substances” (Lidds AB, priority 2005, dated 2015):
Values joined by “and” are separate entries in the source; they are usually repeats but may differ in a detail not shown here. Equal entries are not always repeated. Where two headings read alike, the source gives them in different places.

Key:
prostate tissue = test: Efficacy and safety of local prostate implant in male beagle dogs: side effects, urinated volume, histopathology (Example 3); type: in vivo, dog
Procedure: The major purpose of the present animal study was to examine the efficacy and safety of the new local drug delivery system with 2-hydroxyflutamide, a selective antagonist of the androgen receptor (AR) as the active moiety in human prostate tissue during various treatment periods in male dogs. The dog has been selected as the test model because of its proven suitability in this type of study. The study was performed in 12 male beagle dogs from Harlan Winkelmann GmbH, Germany. The sterile controlled release implant was composed of ceramic compounds and 2-hydroxyflutamide. Storage and handling instructions were given. The composition of the formulation of the low and high dose was 250 mg of 2-hydroxyflutamide +2.25 g calcium sulphate […] +5.0 g calcium sulphate hemi-hydrate and it was mixed with solution: 3.5 ml of water solution (with 1% acetic acid and 1% methyl cellulose). The final formulation work was done during sterile conditions by trained personal at the experimental day. […] The animals were fasted for at least 12 hours prior to the insertion procedure on Day 1. The implant drug delivery system was inserted locally into the prostate tissue, via rectum, through sterile needles during rectal ultrasound guidance. Each animal was under anesthesia during the insertion procedure.

[1] = Plasma pharmacokinetics after local prostate implant in male beagle dogs (Example 3); type: in vivo, dog; conditions: for F (bioavailability): beagle dog; for F (bioavailability) / bioavailability: approximated with average i.v. clearance of Example 1; for half-life: read-out: t½ (converted); for bioavailability: iv, read-out: F (bioavailability)
Procedure: The dog has been selected as the test model because of its proven suitability in this type of study. The study was performed in 12 male beagle dogs from Harlan Winkelmann GmbH, Germany.
The sterile controlled release implant was composed of ceramic compounds and 2-hydroxyflutamide. Storage and handling instructions were given. The composition of the formulation of the low and high dose was 250 mg of 2-hydroxyflutamide +2.25 g calcium sulphate di-hydrat +5.0 g calcium sulphate hemi-hydrate and it was mixed with solution: 3.5 ml of water solution (with 1% acetic acid and 1% methyl cellulose).
The final formulation work was done during sterile conditions by trained personal at the experimental day. The amount injected into each lobe of the androgen sensitive bulbourethral gland was about 2.0-3.0 ml for the low dose (250 mg) and 4.0-6.0 ml of the high dose (500 mg).
The animals were fasted for at least 12 hours prior to the insertion procedure on Day 1. The implant drug delivery system was inserted locally into the prostate tissue, via rectum, through sterile needles during rectal ultrasound guidance. Each animal was under anesthesia during the insertion procedure.
Blood samples for pharmacokinetic was collected as follows: On Day 1: Pre-insertion and 6 hours after insertion. Blood samples were sampled in the morning on Days 2, 3, 4, 5, 6 and 7. During the rest of the study blood samples were collected once a week.
Blood samples of approximately 3 ml were drawn from the jugular vein. The blood was sampled into vacutainers containing EDTA as anticoagulant. The blood was placed in ice water until centrifugation (10 min, 1270 G, +4° C.). The plasma was transferred to Nunc cryotubes (Nunc, Denmark) and frozen at −18° C. or below and sent with dry ice to Swedish Veterinary Institute, Uppsala for analysis.
The plasma pharmacokinetic variables were calculated using standard pharmacokinetic methods and are given for both implant doses of 250 mg and 500 mg in Tables 6 and 7. The bioavailability (F) was approximated by using the average value for clearance of 2-hydroyflutamide when it was given by an intravenous dose in the dog study presented in Example 1.

[2] = Plasma pharmacokinetics and tissue level after controlled release implant into bulbourethral gland of male sheep (Example 2); type: in vivo; conditions: three moths after the injection
[3] = Observation of behaviour and side effects (diarrhea) in dogs (Example 1); type: in vivo, dog
Procedure: First, four male dogs (H1-H4) (Labrador, approx. 1 year of age and weight 30 kg) were given 2-hydroxy-flutamide (25 mg) by single bolus doses intravenously during 30 seconds. The intravenous solution base was sterile saline […], sterile polyethylene glycol 400 46% and ethanol (95%) 6%. Blood samples of 1.0 ml were taken from the Cephalic vein at 5, 10, 15, 30, 60, 90, 120, 240, 360, and 600 minutes. The blood samples were immediately centrifuged at 3000 rpm and the plasma samples were frozen at −80° C. until analysis.
One week later, the same animals were given 2-hydroxy-flutamide locally by a controlled release pharmaceutical composition in the prostate tissue. The 2-hydroxy- flutamide doses were 0 mg (H1), 30 mg (H3), 60 mg (H2) and 120 mg (H4), and each dog was given one implant only. Where H1 was a control given the composition without 2-hydroxy-flutamide. All doses of 2-hydroxy-flutamide were given after an overnight fast. Dog 1 (H1) and dog 3 (H3) were given an enema preoperatively. After the local prostate application of the pharmaceutical composition through rectum, an antibiotic (Quinolon) was administered in normal doses.

[4] = local prostate implant 250 mg or 500 mg
[5] = beagle dog plasma, local prostate implant 250 mg, individual animals
[6] = beagle dog plasma, local prostate implant 500 mg, individual animals
[7] = male, beagle, dog, plasma, 250 mg, beagle dogs, local prostate implant 250 mg, Mean of four animals
[8] = male, beagle, dog, plasma, 500 mg, beagle dogs, local prostate implant 500 mg, Mean of four animals

CC(C)(O)C(=O)Nc1ccc([N+](=O)[O-])c(C(F)(F)F)c1 [2-hydroxy-flutamide]
diarrhea (prostate tissue; [4]): no diarrhea observed | effect of the treatment on the urinated volume (prostate tissue; [4]): no effect | side-effects (prostate tissue; [4]): no side-effects were observed | microscopic findings of the prostate tissue (histopathology) (prostate tissue; treated groups, local prostate implant): increased incidence of vacuolation and cystic acini | AUC [1, 5]: 8701 ng·h/mL and 5446 ng·h/mL and 5921 ng·h/mL and 13237 ng·h/mL | Cmax [1, 5]: 97 ng/mL and 58 ng/mL and 85 ng/mL and 131 ng/mL | Tmax [1, 5]: 48 h | t½ [1, 5]: 34 h and 39 h and 26 h | AUC [1, 6]: 13009 ng·h/mL and 13420 ng·h/mL and 11631 ng·h/mL | Cmax [1, 6]: 202 ng/mL and 133 ng/mL | Tmax [1, 6]: 48 h | t½ [1, 6]: 57 h and 59 h and 34 h and 28 h | F (bioavailability) ([1]; local prostate implant 250 mg, individual animals): 74% and 46% and 50% and 112% | F (bioavailability) ([1]; local prostate implant 500 mg, individual animals): 86% and 110% and 113% and 98% | half-life ([1]; male, beagle, dog, plasma, 250 mg, beagle dog plasma, local prostate implant 250 mg, individual animals): 1920 min | AUC ([1]; male, beagle, dog, plasma, 250 mg, beagle dogs, local prostate implant 250 mg, Mean of four animals, read-out: AUC): 8330 ng·h/mL | Cmax ([1]; male, beagle, dog, plasma, 250 mg, beagle dogs, local prostate implant 250 mg, Mean of four animals, read-out: Cmax): 93 ng/mL | Tmax ([1]; male, beagle, dog, plasma, 250 mg, beagle dogs, local prostate implant 250 mg, Mean of four animals, read-out: tmax): 17 h | half-life [1, 7]: 1980 min | AUC ([1]; male, beagle, dog, plasma, 500 mg, beagle dog plasma, local prostate implant 500 mg, individual animals, read-out: AUC): 10200 ng·h/mL | Cmax ([1]; male, beagle, dog, plasma, 500 mg, beagle dog plasma, local prostate implant 500 mg, individual animals, read-out: Cmax): 102 ng/mL | AUC ([1]; male, beagle, dog, plasma, 500 mg, beagle dogs, local prostate implant 500 mg, Mean of four animals, read-out: AUC): 12100 ng·h/mL | Cmax ([1]; male, beagle, dog, plasma, 500 mg, beagle dogs, local prostate implant 500 mg, Mean of four animals, read-out: Cmax): 145 ng/mL | Tmax ([1]; male, beagle, dog, plasma, 500 mg, beagle dogs, local prostate implant 500 mg, Mean of four animals, read-out: tmax): 27 h | half-life [1, 8]: 2700 min | bioavailability [1, 7]: 71% | bioavailability [1, 8]: 102% | levels in prostate gland [2]: possible to quantify | diarrhea ([3]; after intravenous administration 25 mg): all dogs suffered from diarrhea | diarrhea ([3]; after local administration of the controlled release composition in the prostate tissue): not observed in any animals
